pKi: −log10 of the molar value.
Biological target: human capsaicin receptor (VR1) (Homo sapiens, UniProt Q8NER1)
Test: Capsaicin receptor binding assay ([3H]RTX competition, VR1-transfected HEK293 membranes)

Sequence of human capsaicin receptor (VR1) (Q8NER1 whole entry): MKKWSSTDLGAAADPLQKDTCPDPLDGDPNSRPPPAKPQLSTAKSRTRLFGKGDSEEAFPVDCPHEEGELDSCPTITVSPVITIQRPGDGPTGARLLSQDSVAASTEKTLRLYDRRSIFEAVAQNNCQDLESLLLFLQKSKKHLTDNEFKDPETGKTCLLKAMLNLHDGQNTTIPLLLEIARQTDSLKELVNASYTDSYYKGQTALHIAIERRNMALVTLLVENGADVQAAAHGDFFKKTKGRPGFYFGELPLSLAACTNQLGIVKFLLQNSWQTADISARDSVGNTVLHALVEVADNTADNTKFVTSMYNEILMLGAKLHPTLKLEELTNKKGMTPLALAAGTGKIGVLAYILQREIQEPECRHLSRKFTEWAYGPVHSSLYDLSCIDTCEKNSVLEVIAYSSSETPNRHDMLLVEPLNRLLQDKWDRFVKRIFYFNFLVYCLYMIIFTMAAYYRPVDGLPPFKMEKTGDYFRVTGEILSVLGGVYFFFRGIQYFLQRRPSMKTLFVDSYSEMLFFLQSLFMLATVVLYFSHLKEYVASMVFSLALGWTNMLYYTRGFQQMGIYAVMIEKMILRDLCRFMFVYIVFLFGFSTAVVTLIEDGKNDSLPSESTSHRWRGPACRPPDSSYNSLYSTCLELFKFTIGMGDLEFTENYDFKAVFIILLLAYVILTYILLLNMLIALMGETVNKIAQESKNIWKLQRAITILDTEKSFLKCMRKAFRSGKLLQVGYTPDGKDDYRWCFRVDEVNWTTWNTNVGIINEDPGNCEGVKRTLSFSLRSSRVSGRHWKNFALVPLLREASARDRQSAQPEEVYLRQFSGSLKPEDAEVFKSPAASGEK

pKi	Compound
> 6.00	CCOCc1nc(Nc2ccc(C(C)(C)C)cc2)c2ccc(-c3ncccc3Cl)nc2n1 [Compound 132, (4-tert-Butyl-phenyl)-[7-(3-chloro-pyridin-2-yl)-2-ethoxymethyl-pyrido[2,3-d]pyrimidin-4-yl]-amine]
> 6.00	CCOCc1nc(Nc2ccc(C(C)C)cc2)c2ccc(-c3ncccc3Cl)nc2n1 [Compound 133, [7-(3-Chloro-pyridin-2-yl)-2-ethoxymethyl-pyrido[2,3-d]pyrimidin-4-yl]-(4-isopropyl-phenyl)-amine]
> 6.00	CCOCc1nc(Nc2ccc(C(F)(F)F)cc2)c2ccc(-c3ncccc3Cl)nc2n1 [Compound 134, [7-(3-Chloro-pyridin-2-yl)-2-ethoxymethyl-pyrido[2,3-d]pyrimidin-4-yl]-(4-trifluoromethyl-phenyl)-amine]
> 6.00	CCOCc1nc(Nc2ccc(S(=O)(=O)C(F)(F)F)cc2)c2ccc(-c3ncccc3Cl)nc2n1 [Compound 135, [7-(3-Chloro-pyridin-2-yl)-2-ethoxymethyl-pyrido[2,3-d]pyrimidin-4-yl]-(4-trifluoromethanesulfonyl-phenyl)-amine]
> 6.00	CCOCc1nc(Nc2ccc(C(C)C(F)(F)F)cc2)c2ccc(-c3ncccc3Cl)nc2n1 (stereo not shown) [Compound 136, [7-(3-Chloro-pyridin-2-yl)-2-ethoxymethyl-pyrido[2,3-d]pyrimidin-4-yl]-[4-(2,2,2-trifluoro-1-methyl-ethyl)-phenyl]-amine]
> 6.00	CCOCc1nc(Nc2ccc(C3CCCC3)cc2)c2ccc(-c3ncccc3Cl)nc2n1 [Compound 137, [7-(3-Chloro-pyridin-2-yl)-2-ethoxymethyl-pyrido[2,3-d]pyrimidin-4-yl]-(4-cyclopentyl-phenyl)-amine]
> 6.00	CCOCc1nc(Nc2ccc(C(F)(F)F)cc2)c2ccc(-c3ncccc3C)nc2n1 [Compound 138, [2-Ethoxymethyl-7-(3-methyl-pyridin-2-yl)-pyrido[2,3-d]pyrimidin-4-yl]-(4-trifluoromethyl-phenyl)-amine]
> 6.00	CCOCc1nc(Nc2ccc(C(C)C)cc2)c2ccc(-c3ncccc3C)nc2n1 [Compound 139, [2-Ethoxymethyl-7-(3-methyl-pyridin-2-yl)-pyrido[2,3-d]pyrimidin-4-yl]-(4-isopropyl-phenyl)-amine]
> 6.00	CCOCc1nc(Nc2ccc(S(=O)(=O)C(F)(F)F)cc2)c2ccc(-c3ncccc3C)nc2n1 [Compound 140, [2-Ethoxymethyl-7-(3-methyl-pyridin-2-yl)-pyrido[2,3-d]pyrimidin-4-yl]-(4-trifluoromethanesulfonyl-phenyl)-amine]
> 6.00	O=S(=O)(c1ccc(Nc2nc(COC3CCOCC3)nc3cc(-c4ncccc4C(F)(F)F)ccc23)cc1)N1CCOCC1 [Compound 141, [4-(Morpholine-4-sulfonyl)-phenyl]-[2-(tetrahydro-pyran-4-yloxymethyl)-7-(3-trifluoromethyl-pyridin-2-yl)-quinazolin-4-yl]-amine]
> 6.00	O=S(=O)(c1ccc(Nc2nc(COCC3CC3)nc3cc(-c4ncccc4C(F)(F)F)ccc23)cc1)N1CCOCC1 [Compound 142, [2-Cyclopropylmethoxymethyl-7-(3-trifluoromethyl-pyridin-2-yl)-quinazolin-4-yl]-[4-(morpholine-4-sulfonyl)-phenyl]-amine]
> 6.00	O=S(=O)(c1ccc(Nc2nc(COC3CCCC3)nc3cc(-c4ncccc4C(F)(F)F)ccc23)cc1)N1CCOCC1 [Compound 143, [2-Cyclopentyloxymethyl-7-(3-trifluoromethyl-pyridin-2-yl)-quinazolin-4-yl]-[4-(morpholine-4-sulfonyl)-phenyl]-amine]
> 6.00	CN(C)CC(O)COCc1nc(Nc2ccc(C(F)(F)F)cc2)c2ccc(-c3ncccc3C(F)(F)F)cc2n1 (stereo not shown) [Compound 144, 1-Dimethylamino-3-[4-(4-trifluoromethyl-phenylamino)-7-(3-trifluoromethyl-pyridin-2-yl)-quinazolin-2-ylmethoxy]-propan-2-ol]
> 6.00	CCN(CC)CC[C@@H](C)OCc1nc(Nc2ccc(C(C)(C)C)cc2)c2ccc(-c3ncccc3C(F)(F)F)cc2n1 [Compound 145, (4-tert-Butyl-phenyl)-[2-(3-diethylamino-1-methyl-propoxymethyl)-7-(3-trifluoromethyl-pyridin-2-yl)-quinazolin-4-yl]-amine]
> 6.00	CCOCc1nc(Nc2ccc(C(F)(F)F)nc2)c2ccc(-c3ncccc3Cl)nc2n1 [Compound 146, [7-(3-Chloro-pyridin-2-yl)-2-ethoxymethyl-pyrido[2,3-d]pyrimidin-4-yl]-(6-trifluoromethyl-pyridin-3-yl)-amine]
> 6.00	COCc1nc(Nc2ccc(C(F)(F)F)nc2)c2ccc(-c3ncccc3C(F)(F)F)nc2n1 [Compound 147, [2-Methoxymethyl-7-(3-trifluoromethyl-pyridin-2-yl)-pyrido[2,3-d]pyrimidin-4-yl]-(6-trifluoromethyl-pyridin-3-yl)-amine]
> 6.00	COCc1nc(Nc2ccc(C(F)(F)F)nc2)c2ccc(-c3ncccc3C)nc2n1 [Compound 148, [2-Methoxymethyl-7-(3-methyl-pyridin-2-yl)-pyrido[2,3-d]pyrimidin-4-yl]-(6-trifluoromethyl-pyridin-3-yl)-amine]
> 6.00	COCc1nc(Nc2ccc(C3(C#N)CCC3)cc2)c2ccc(-c3ncccc3C)nc2n1 [Compound 149, 1-{4-[2-Methoxymethyl-7-(3-methyl-pyridin-2-yl)-pyrido[2,3-d]pyrimidin-4-ylamino]-phenyl}-cyclobutanecarbonitrile]
> 6.00	CCOCc1nc(Nc2ccc(C3(C#N)CCC3)cc2)c2ccc(-c3ncccc3Cl)nc2n1 [Compound 150, 1-{4-[7-(3-Chloro-pyridin-2-yl)-2-ethoxymethyl-pyrido[2,3-d]pyrimidin-4-ylamino]-phenyl}-cyclobutanecarbonitrile]
> 6.00	FC(F)(F)c1ccc(Nc2nc(COC3CCOCC3)nc3cc(-c4ncccc4C(F)(F)F)ccc23)cn1 [Compound 154, [2-(Tetrahydro-pyran-4-yloxymethyl)-7-(3-trifluoromethyl-pyridin-2-yl)-quinazolin-4-yl]-(6-trifluoromethyl-pyridin-3-yl)-amine]
> 6.00	CC(C)(C)c1ccc(Nc2nc(CO)nc3cc(-c4ncccc4C(F)(F)F)ccc23)cc1 [Compound 155, [4-(4-tert-Butyl-phenylamino)-7-(3-trifluoromethyl-pyridin-2-yl)-quinazolin-2-yl]-methanol]
> 6.00	CC(C)c1ccc(Nc2nc(CO)nc3cc(-c4ncccc4C(F)(F)F)ccc23)cc1 [Compound 156, [4-(4-Isopropyl-phenylamino)-7-(3-trifluoromethyl-pyridin-2-yl)-quinazolin-2-yl]-methanol]
> 6.00	CC(C)(C)c1ccc(Nc2nc(CO)nc3cc(-c4ncccc4Cl)ccc23)cc1 [Compound 157, [4-(4-tert-Butyl-phenylamino)-7-(3-chloro-pyridin-2-yl)-quinazolin-2-yl]-methanol]
> 6.00	CC(C)c1ccc(Nc2nc(CO)nc3cc(-c4ncccc4Cl)ccc23)cc1 [Compound 158, [7-(3-Chloro-pyridin-2-yl)-4-(4-isopropyl-phenylamino)-quinazolin-2-yl]-methanol]

Compound	pKi
Cc1cccnc1-c1ccc2c(Nc3ccc(C4(C#N)CCC4)cc3)nc(COCC(C)C)nc2n1 [Compound 151, 1-{4-[2-Isobutoxymethyl-7-(3-methyl-pyridin-2-yl)-pyrido[2,3-d]pyrimidin-4-ylamino]-phenyl}-cyclobutanecarbonitrile]	> 6.00

— patent US20040156869A1, “2-substituted quinazolin-4-ylamine analogues” (Neurogen Corporation, priority 2002, published 2004)
